Experimental data reported in PubChem BioAssay AID624275 (Broad Institute, 2012).
The source made the active and inactive calls. The rule behind the calls is not given here.

System: CqsS sensor histidine kinase (Vibrio cholerae)
Assay: CqsS histidine kinase agonist, Vibrio cholerae WN1103 delta luxQ, luciferase luminescence, confirmatory dose (AID 624275)
Details: V. cholerae WN1103 delta luxQ, 6 h; for activation: at 35 µM (top of the series)

SMILES | activation | AC40
CCn1c(CC(=O)Nc2cccc(Cl)c2Cl)nnc1SCCOc1ccc(OC)cc1 | 0.37% (inactive) | 
Cc1c(Cl)cccc1-n1cnc(=O)c2ccccc21 |  | > 35000 nM (inactive)
O=C(Nc1nnc(-c2ccc3c(c2)OCCO3)o1)C1CCCCC1 |  | 2070 nM
CCn1nnnc1NCc1ccc(N2CCCC2)cc1 |  | 5.71 nM
O=c1ncn(-c2cccc(Cl)c2)c2ccccc12 |  | 29.4 nM
Cc1ccc2cc3c(NC(=O)c4ccco4)nn(C)c3nc2c1 |  | 4220 nM
COc1ccccc1NC(=O)COC(=O)c1oc2ccccc2c1C |  | 2010 nM
CCCn1nnnc1NCc1ccc(C(C)C)cc1 |  | 28.8 nM
CCC(C)NC(=O)Cc1ccc(-c2ccccc2)cc1 (stereo not given) |  | 1920 nM
CCOc1ccc(Nc2ccc3nonc3c2[N+](=O)[O-])cc1 |  | 596 nM
CCCn1nnnc1NCc1ccc(N2CCCC2)cc1 |  | 29.2 nM
Cc1ccc(CC(=O)NC2CCCC2)cc1 | 10.3% (inactive) | 
COc1ccccc1NC(=O)COC(=O)c1ccc(C)cc1 |  | 2240 nM
COc1ccc(Cl)cc1NC(=O)COC(=O)c1ccc(C)o1 |  | 489 nM
O=C(Cc1ccc(-c2ccccc2)cc1)NC1CCCC1 |  | 118 nM
Cc1ccc(OCCNC(=O)c2cccc(C)c2)cc1 |  | 309 nM
CCCn1nnnc1NCc1ccccc1Cl | 0.419% (inactive) | 
COc1ccccc1NC(=O)COC(=O)c1cc2c(s1)CCC2 |  | 184 nM
CCCn1nnnc1NCc1ccc(N(CC)CC)cc1 |  | 90.1 nM
CCn1nnc(NCc2ccc(C)cc2)n1 | 0.153% (inactive) | 
